Consider 22 compounds from US7442833B2, “Triphenylethylene compounds as selective estrogen receptor modulators” (SmithKline Beecham Corporation, priority 2003, dated 2008).

The target in data set [1] is estrogen receptor subtype alpha (Homo sapiens, UniProt P03372). As to conditions: relative to estradiol; reported by Weatherman, Chem. and Biol. (2001) 8, 427-436; cited from earlier work.
Data set [2] addresses estrogen receptor subtype beta (Homo sapiens, UniProt Q92731). As to conditions: relative to estradiol; reported by Weatherman, Chem. and Biol. (2001) 8, 427-436; cited from earlier work.
Data set [3] can be described thus: Rat oral pharmacokinetics: bioavailability of compound 1. It is filed as in vivo, female CD (Charles River Sprague Dawley) rats. As to conditions: for Bioavailability of 1 in Rat (% F): Table I; for Bioavailability of 1 in Rat: Table II. As for the experimental part: In order to study the pharmacokinetic behavior of the prodrugs of this invention, a single oral dose of a series of prodrugs as well as compound 1 was administered to female CD (Charles River Sprague Dawley) rats. Rats received each compound by oral gavage at a dose of 10 mg/kg. […]

Data set [4] is described as follows: Equilibrium solubility in fasted state simulated intestinal fluid (SIF). The class given is physicochemical. As to conditions: fassif, thermodynamic from solid, pH = 6.8. An excerpt:
Traditionally, prodrugs have often been used to increase the bioavailability of a drug via improvement of prodrug solubility by attaching a water-soluble moiety (the “progroup”) to a poorly water soluble parent drug (D. Fleisher, Adv. Drug Del. Rev. (1996) 19, 115-130, incorporated herein by reference).

Setting [5] is: single oral gavage 10 mg/kg, suspension in aqueous 0.5% HPMC and 0.1% polysorbate 80 (Tween 80).
Setting [6] is: oral, suspension in aqueous 0.5% HPMC and 0.1% polysorbate 80 (Tween 80).

The structures appear in SMILES notation. Converted amounts (≈) assume the structure as drawn. “And” between values parts separate entries of the source, which are not always exact repeats. Identical values can stand only once. Counter-ions that a name gives are not always drawn. Some results are limits rather than exact numbers.

Chain of estrogen receptor subtype beta (Q92731 whole entry): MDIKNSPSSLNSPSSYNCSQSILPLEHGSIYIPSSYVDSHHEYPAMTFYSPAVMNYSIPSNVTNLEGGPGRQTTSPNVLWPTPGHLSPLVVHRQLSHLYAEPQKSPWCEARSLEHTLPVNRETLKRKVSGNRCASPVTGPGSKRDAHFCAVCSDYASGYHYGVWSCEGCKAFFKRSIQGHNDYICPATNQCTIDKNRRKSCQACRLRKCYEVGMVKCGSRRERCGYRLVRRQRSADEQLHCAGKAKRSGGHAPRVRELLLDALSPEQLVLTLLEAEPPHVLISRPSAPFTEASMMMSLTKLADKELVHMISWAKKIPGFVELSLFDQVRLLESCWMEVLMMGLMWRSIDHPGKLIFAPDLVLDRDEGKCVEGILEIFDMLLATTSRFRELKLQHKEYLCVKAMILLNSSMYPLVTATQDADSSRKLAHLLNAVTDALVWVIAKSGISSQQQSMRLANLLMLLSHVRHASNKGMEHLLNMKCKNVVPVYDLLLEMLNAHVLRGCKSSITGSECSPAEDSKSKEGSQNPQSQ
Chain of estrogen receptor subtype alpha (P03372 whole entry): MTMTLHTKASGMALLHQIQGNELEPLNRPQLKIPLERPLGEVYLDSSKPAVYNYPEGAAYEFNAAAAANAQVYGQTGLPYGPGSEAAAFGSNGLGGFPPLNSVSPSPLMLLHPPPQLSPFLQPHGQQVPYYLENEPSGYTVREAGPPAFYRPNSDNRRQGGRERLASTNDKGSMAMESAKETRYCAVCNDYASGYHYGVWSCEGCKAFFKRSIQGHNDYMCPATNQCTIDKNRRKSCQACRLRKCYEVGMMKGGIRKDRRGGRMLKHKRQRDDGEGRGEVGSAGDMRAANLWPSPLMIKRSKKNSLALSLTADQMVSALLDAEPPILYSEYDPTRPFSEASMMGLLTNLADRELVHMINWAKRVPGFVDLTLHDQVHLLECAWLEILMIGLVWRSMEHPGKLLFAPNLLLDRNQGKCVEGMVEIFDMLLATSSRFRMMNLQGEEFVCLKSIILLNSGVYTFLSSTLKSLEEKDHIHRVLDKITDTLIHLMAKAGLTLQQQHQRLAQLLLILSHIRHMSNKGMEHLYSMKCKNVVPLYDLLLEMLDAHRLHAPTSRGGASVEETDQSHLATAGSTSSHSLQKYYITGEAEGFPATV

For orientation: melting point means the temperature of the solid-liquid transition. Take `CC/C(=C(\c1ccc(/C=C/C(=O)O)cc1)c1ccc(OC(=O)CN(C)C)cc1)c1ccccc1` (as salt: salt) [Compound 23, (2E)-3-[4-((1Z)-1-{4-[(N,N-dimethylglycyl)oxy]phenyl}-2-phenylbut-1-enyl)phenyl]prop-2-enoic acid]: the melting point fell in the range of 206 to 208 °C.

`CC/C(=C(\c1ccc(/C=C/C(=O)O)cc1)c1ccc(OC(=O)c2cccs2)cc1)c1ccccc1` (as salt: salt) [Compound 25, (2E)-3-[4-((1Z)-2-phenyl-1-{4-[(thien-2-ylcarbonyl)oxy]phenyl}but-1-enyl)phenyl]prop-2-enoic acid] returned a melting point of 175 to 176 °C.

For `CC/C(=C(\c1ccc(/C=C/C(=O)O)cc1)c1ccc(OC(=O)CCC(F)(F)F)cc1)c1ccccc1` (as salt: salt) [Compound 27, (2E)-3-[4-((1Z)-2-phenyl-1-{4-[(4,4,4-trifluorobutanoyl)oxy]phenyl}but-1-enyl)phenyl]prop-2-enoic acid], the melting point fell in the range of 162 to 163 °C.

The solubility (thermodynamic) is solubility found after equilibrating the solid with the medium. As for `CC/C(=C(/c1ccc(O)cc1)c1ccc(/C=C/C(=O)O)cc1)c1ccccc1` [Compound 1, (2E)-3-{4-[(1Z)-1-(4-Hydroxyphenyl)-2-phenylbut-1-enyl]phenyl}prop-2-enoic acid], the “binding affinity to estrogen receptor subtype alpha, % that of estradiol” value in data set [1] is on record as 2%. For the same compound, the “binding affinity to estrogen receptor subtype beta, % that of estradiol” value in data set [2] is on record as 1%. Further, the “Bioavailability of 1 in Rat (% F)” value in data set [3] (oral, solution in aqueous 20% hydroxypropoylcyclodextrin) is listed as 29.0 % F; in data set [3] (setting [5]), 5.7 % F. For the same compound, the “Bioavailability of 1 in Rat” value in data set [3] (setting [6]) worked out at 5.7 % F. This compound gave a solubility (thermodynamic) in data set [4] of 23 µg/mL (≈ 62.1 µM).

Take `CCC(=O)Oc1ccc(/C(=C(/CC)c2ccccc2)c2ccc(/C=C/C(=O)O)cc2)cc1` [Compound 7, (2E)-3-(4-{(1Z)-2-phenyl-1-[4-(propionyloxy)phenyl]but-1-enyl}phenyl)prop-2-enoic acid]: the melting point was 155 to 157 °C and 158 to 160 °C. Further, the “Bioavailability of 1 in Rat (% F)” value in data set [3] (setting [5]) was found to be 86.6 % F. In data set [3] (setting [6]), the “Bioavailability of 1 in Rat” value turned out to be 86.6 % F. In addition, in data set [4], the thermodynamic solubility is 61 µg/mL (≈ 143 µM).

`CC/C(=C(\c1ccc(/C=C/C(=O)O)cc1)c1ccc(OC(=O)c2ccccc2)cc1)c1ccccc1` [Compound 18, (2E)-3-(4-{(1Z)-1-[4-(benzoyloxy)phenyl]-2-phenylbut-1-enyl}phenyl)prop-2-enoic acid]: in data set [3] (setting [5]), the “Bioavailability of 1 in Rat (% F)” value was 12.3 % F.

On to `CC/C(=C(\c1ccc(/C=C/C(=O)O)cc1)c1ccc(OC(C)=O)cc1)c1ccccc1` [Compound 20, (2E)-3-(4-{(1Z)-1-[4-(acetyloxy)phenyl]-2-phenylbut-1-enyl}phenyl)prop-2-enoic acid], for which the “Bioavailability of 1 in Rat (% F)” value in data set [3] (setting [5]) is 13.5 % F. Also, in data set [3] (setting [6]), the “Bioavailability of 1 in Rat” value is recorded as 13.5 % F. In addition, the thermodynamic solubility in data set [4] was 129 µg/mL (≈ 313 µM).

With `CCCC(=O)Oc1ccc(/C(=C(/CC)c2ccccc2)c2ccc(/C=C/C(=O)O)cc2)cc1` [Compound 21, (2E)-3-(4-{(1Z)-1-[4-(butyryloxy)phenyl]-2-phenylbut-1-enyl}phenyl)prop-2-enoic acid], in data set [3] (setting [5]), the “Bioavailability of 1 in Rat (% F)” value is 18.2 % F. Besides, the “Bioavailability of 1 in Rat” value in data set [3] (setting [6]) came out at 18.2 % F. Also, in data set [4], the thermodynamic solubility was 21 µg/mL (≈ 47.7 µM).

`CC/C(=C(\c1ccc(/C=C/C(=O)O)cc1)c1ccc(OC(=O)c2ccco2)cc1)c1ccccc1` [Compound 22, (2E)-3-(4-{(1Z)-1-[4-(2-Furoyloxy)phenyl]-2-phenyl-1-butenyl}phenyl)-2-propenoic acid]: the melting point fell in the range of 170 to 172 °C. In addition, the “Bioavailability of 1 in Rat (% F)” value in data set [3] (setting [5]) is on record as 16.9 % F.

On to `CC/C(=C(\c1ccc(/C=C/C(=O)O)cc1)c1ccc(OC(=O)CN(C)C)cc1)c1ccccc1` [Compound 23, (2E)-3-[4-((1Z)-1-{4-[(N,N-dimethylglycyl)oxy]phenyl}-2-phenylbut-1-enyl)phenyl]prop-2-enoic acid], for which the “Bioavailability of 1 in Rat (% F)” value in data set [3] (setting [5]) is reported as 38.3 % F. In addition, in data set [3] (setting [6]), the “Bioavailability of 1 in Rat” value came to 38.3 % F. For the same compound, the thermodynamic solubility in data set [4] was 15 µg/mL (≈ 32.9 µM).

Turning to `CC/C(=C(\c1ccc(/C=C/C(=O)O)cc1)c1ccc(OC(=O)c2ccno2)cc1)c1ccccc1` [Compound 24, (2E)-3-[4-((1Z)-1-{4-[(5-Isoxazolylcarbonyl)oxy]phenyl}-2-phenyl-1-butenyl)phenyl]-2-propenoic acid], the melting point was in the range of 141 to 142 °C. The “Bioavailability of 1 in Rat (% F)” value in data set [3] (setting [5]) came to 43.2 % F.

As for `CC/C(=C(\c1ccc(/C=C/C(=O)O)cc1)c1ccc(OC(=O)c2cccs2)cc1)c1ccccc1` [Compound 25, (2E)-3-[4-((1Z)-2-phenyl-1-{4-[(thien-2-ylcarbonyl)oxy]phenyl}but-1-enyl)phenyl]prop-2-enoic acid], the “Bioavailability of 1 in Rat (% F)” value in data set [3] (setting [5]) came out at 50.9 % F.

Take `CC/C(=C(\c1ccc(/C=C/C(=O)O)cc1)c1ccc(OC(=O)CCOC)cc1)c1ccccc1` [Compound 26]: the melting point fell in the range of 190 to 191 °C. For the same compound, the “Bioavailability of 1 in Rat (% F)” value in data set [3] (setting [5]) came out at 52.4 % F.

For the compound `CC/C(=C(\c1ccc(/C=C/C(=O)O)cc1)c1ccc(OC(=O)CCC(F)(F)F)cc1)c1ccccc1` [Compound 27, (2E)-3-[4-((1Z)-2-phenyl-1-{4-[(4,4,4-trifluorobutanoyl)oxy]phenyl}but-1-enyl)phenyl]prop-2-enoic acid], in data set [3] (setting [5]), the “Bioavailability of 1 in Rat (% F)” value was found to be 28.9 % F.

Consider `CC/C(=C(\c1ccc(/C=C/C(=O)O)cc1)c1ccc(OC(=O)C(C)(C)C)cc1)c1ccccc1` [Compound 28, (2E)-3-[4-((1Z)-1-{4-[(2,2-dimethylpropanoyl)oxy]phenyl}-2-phenylbut-1-enyl)phenyl]prop-2-enoic acid], for which the “Bioavailability of 1 in Rat (% F)” value in data set [3] (setting [5]) was found to be 3.5 % F.

In the case of `CC/C(=C(\c1ccc(/C=C/C(=O)O)cc1)c1ccc(OC(=O)C2CCCCC2)cc1)c1ccccc1` [Compound 29, (2E)-3-[4-((1Z)-1-{4-[(cyclohexylcarbonyl)oxy]phenyl}-2-phenylbut-1-enyl)phenyl]prop-2-enoic acid], in data set [3] (setting [5]), the “Bioavailability of 1 in Rat (% F)” value is recorded as 3.3 % F.

Regarding `CC/C(=C(\c1ccc(/C=C/C(=O)O)cc1)c1ccc(OC(=O)CN2CCOCC2)cc1)c1ccccc1` [Compound 31, (2E)-3-[4-((1Z)-1-{4-[(morpholin-4-ylacetyl)oxy]phenyl}-2-phenylbut-1-enyl)phenyl]prop-2-enoic acid], in data set [3] (setting [5]), the “Bioavailability of 1 in Rat (% F)” value was 21.3 % F.

In the case of `CC/C(=C(\c1ccc(/C=C/C(=O)O)cc1)c1ccc(OC(=O)CN2CCCCC2)cc1)c1ccccc1` [Compound 33, (2E)-3-[4-((1Z)-2-phenyl-1-{4-[(piperidin-1-ylacetyl)oxy]phenyl}but-1-enyl)phenyl]prop-2-enoic acid], the “Bioavailability of 1 in Rat (% F)” value in data set [3] (setting [5]) worked out at 13.9 % F.

As to `CC/C(=C(\c1ccc(/C=C/C(=O)O)cc1)c1ccc(OC(=O)CN2CCN(C)CC2)cc1)c1ccccc1` [Compound 34, (2E)-3-{4-[(1Z)-1-(4-{[(4-methylpiperazin-1-yl)acetyl]oxy}phenyl)-2-phenylbut-1-enyl]phenyl}prop-2-enoic acid], the “Bioavailability of 1 in Rat (% F)” value in data set [3] (setting [5]) is on record as 13.4 % F.

Compound `CC/C(=C(\c1ccc(/C=C/C(=O)O)cc1)c1ccc(OP(=O)(O)O)cc1)c1ccccc1` [Compound 35, (2E)-3-(4-{(1Z)-2-Phenyl-1-[4-(phosphonooxy)phenyl]-1-butenyl}phenyl)-2-propenoic acid] displayed a melting point of 181 to 183 °C. In addition, the “Bioavailability of 1 in Rat (% F)” value in data set [3] (setting [5]) was found to be 37.0 % F. In data set [3] (setting [6]), the “Bioavailability of 1 in Rat” value was 37.0 % F. Also, in data set [4], the solubility (thermodynamic) is over 1000 µg/mL.

In turn, `CCOC(=O)Oc1ccc(/C(=C(/CC)c2ccccc2)c2ccc(/C=C/C(=O)O)cc2)cc1` [Compound 37, (2E)-3-[4-((1Z)-1-{4-[(Ethoxycarbonyl)oxy]phenyl}-2-phenyl-1-butenyl)phenyl]-2-propenoic acid] had a melting point of 135 to 136 °C. The “Bioavailability of 1 in Rat (% F)” value in data set [3] (setting [5]) amounted to 43.2 % F.

Regarding `CC/C(=C(\c1ccc(/C=C/C(=O)O)cc1)c1ccc(OC(=O)OC)cc1)c1ccccc1` [Compound 40, (2E)-3-[4-((1Z)-1-{4-[(Methoxycarbonyl)oxy]phenyl}-2-phenyl-1-butenyl)phenyl]-2-propenoic acid], the melting point fell in the range of 140 to 142 °C. The “Bioavailability of 1 in Rat (% F)” value in data set [3] (setting [5]) came out at 21.9 % F.
